Test results published in patent publication US4130709A, “Pleuromutilin glycoside derivatives” (Eli Lilly and Company, priority 1977, dated 1978).
Values after ≈ are worked out from the molar mass of the structure shown. Where two headings read alike, the source gives them in different places.

Columns and labels:
Pseudomonas sp. (fish) = assay: in vitro activity against Pseudomonas sp. (fish); assay type: cell-based
Text: P. multocida, for example, is a causative agent of respiratory infection in cattle, poultry and swine. P. hemolytica is a major cause of respiratory disease in cattle. The activity of representative compounds of this invention (R^2 =H in group tested) against P. multocida and the Pseudomonas sp. is summarized in Table VI.

[1] = tested on: Bacteroides melaninogenicus 2736; assay: standard agar-dilution test, anaerobic bacteria; assay type: cell-based
Actinomyces israelii = assay: standard agar-dilution test, anaerobic bacteria; assay type: cell-based; settings: 24-hour incubation
Bacteroides corrodens = assay: standard agar-dilution test, anaerobic bacteria; assay type: cell-based; settings: Eikenella corrodens
[2] = tested on: Pasteurella multocida (bovine); assay: in vitro activity against Pasteurella multocida (bovine); assay type: cell-based
Text: (§1) The activity of representative compounds of this invention (R^2 =H in group tested) against P. multocida and the Pseudomonas sp. is summarized in Table VI.

[3] = tested on: Peptostreptococcus anaerobius; assay: standard agar-dilution test, anaerobic bacteria; assay type: cell-based; settings: 24-hour incubation
[4] = tested on: Peptostreptococcus intermedius; assay: standard agar-dilution test, anaerobic bacteria; assay type: cell-based
Clostridium septicum = assay: standard agar-dilution test, anaerobic bacteria; assay type: cell-based; settings: 24-hour incubation
Procedure: (§2) Table IV summarizes the activity of typical compounds of this invention, as determined by the standard agar-dilution test.
(§3) *Endpoint read after 24-hour incubation

[5] = tested on: Bacteroides thetaiotaomicron; assay: standard agar-dilution test, anaerobic bacteria; assay type: cell-based; settings: 24-hour incubation
Procedure: as §2, §3

[6] = tested on: Bacteroides melaninogenicus 1856/28; assay: standard agar-dilution test, anaerobic bacteria; assay type: cell-based; settings: Prevotella intermedia
[7] = tested on: Fusobacterium necrophorum; assay: standard agar-dilution test, anaerobic bacteria; assay type: cell-based
Bacteroides vulgatis = assay: standard agar-dilution test, anaerobic bacteria; assay type: cell-based
Bacteroides fragilis 111 = assay: standard agar-dilution test, anaerobic bacteria; assay type: cell-based
[8] = tested on: Bacteroides fragilis 1936B; assay: standard agar-dilution test, anaerobic bacteria; assay type: cell-based
[9] = tested on: Staphylococcus aureus (H-Heatley) NRRL B-314; assay: in vitro turbidometric assay (Autoturb Microbiological Assay System) against Staphylococcus aureus; assay type: cell-based; settings: nutrient broth pH 7, approximately 4 hours at 37° C., A-40104 factor A as standard
Procedure: The compounds are conveniently tested against a typical gram-positive organism, Staphylococcus aureus, using a turbidometric assay on a semi-automated system (Autoturb Microbiological Assay System, Elanco) described by N. R. Kuzel and F. W. Kavanagh in J. Pharmaceut. Sci, 60 (5), 764 and 767 (1971). In testing these compounds, the following parameters were used: Staphylococcus aureus (H-Heatley) NRRL B-314 in a nutrient broth medium (pH 7), incubated for approximately 4 hours at 37° C. Test samples and A-40104 factor A, which is used as a standard, were dissolved in water. The standard was presented to the Autoturb carrousel at concentrations of 1.25, 2.50, 3.75, 5.00 and 6.25 mcg/ml. Test compounds were diluted to contain approximately 2.5 to 5.0 mcg of activity per ml, as presented to the carrousel. The units of activity of some of the typical compounds of this invention (R^2 =H in group tested) in this in vitro assay are summarized in Table I

Spiroplasma citri = assay: in vitro inhibition of Spiroplasma citri measured by a color reaction; assay type: cell-based; design: key to Activity (color reaction): Red (R) includes complete inhibition; red-orange (RO) indicates partial inhibition; yellow (Y) indicates no inhibition
Procedure: In another important aspect, the compounds of this invention are active against Spiroplasmas. Spiroplasma citri is the causative agent of citrus-stubborn disease; another Spiroplasma, corn-stunt Spiroplasma, affects the growth of corn. Table VII summarizes the in vitro activity of representative compounds of the present invention (R^2 =H in this group) against Spiroplasma citri. In this test, inhibition of S. citri is measured by a color reaction. Red (R) includes complete inhibition; red-orange (RO) indicates partial inhibition; and yellow (Y) indicates no inhibition.

Clostridium perfringens = assay: microbe, parasite or virus in culture; assay type: cell-based; settings: 24 h
Peptococcus prevoti = assay: standard agar-dilution test, anaerobic bacteria; assay type: cell-based
[10] = tested on: Pasteurella multocida (turkey); assay: in vitro activity against Pasteurella multocida (turkey); assay type: cell-based
Text: as §1

Mycoplasma hyorhinis = assay: in vitro broth-dilution studies, mycoplasma; assay type: cell-based
Text: (§4) The minimal inhibitory concentrations (MIC's) of a number of typical compounds of the present invention (R^2 =H in group tested) against various mycoplasma species, as determined by in vitro broth-dilution studies, are summarized in Table V.

Mycoplasma hyopneumoniae = assay: in vitro broth-dilution studies, mycoplasma; assay type: cell-based; settings: Mesomycoplasma hyopneumoniae
Text: as §4

Mycoplasma synoviae = assay: in vitro broth-dilution studies, mycoplasma; assay type: cell-based; settings: Mycoplasmopsis synoviae
Text: as §4

Mycoplasma gallisepticum = assay: in vitro broth-dilution studies, mycoplasma; assay type: cell-based; settings: Mycoplasmoides gallisepticum
Text: as §4

[11] = tested on: Bacteroides fragilis 1877; assay: standard agar-dilution test, anaerobic bacteria; assay type: cell-based
Eubacterium aerofaciens = assay: standard agar-dilution test, anaerobic bacteria; assay type: cell-based; settings: Collinsella aerofaciens
Fusobacterium symbiosum = assay: standard agar-dilution test, anaerobic bacteria; assay type: cell-based
[12] = tested on: Peptococcus asaccharolyticus; assay: standard agar-dilution test, anaerobic bacteria; assay type: cell-based; settings: Peptoniphilus asaccharolyticus, 24-hour incubation
[13] = toxicity (LD50) on intraperitoneal injection in mice; settings: mouse, in vivo, ip; intraperitoneal injection, mice

Which results are given for `CC[C@]1(C)C[C@@H](OC(=O)CS[C@@H]2OC[C@@H](OC(C)=O)[C@H](OC(C)=O)[C@H]2OC(C)=O)[C@]2(C)[C@H](C)CC[C@]3(CCC(=O)[C@H]32)[C@@H](C)[C@@H]1O` [Compound 6, 14-deoxy-14-[(2,3,4-tri-O-acetyl-β-D-xylopyranosyl)thioacetoxy]-19,20-dihydromutilin]?
MIC (Pseudomonas sp. (fish)): 12.5 µg/mL (≈ 19.1 µM); MIC ([1]; Bacteroides melaninogenicus 2736, 24-hour incubation, read-out: MIC): 4 µg/mL (≈ 6.11 µM); MIC (Actinomyces israelii): 2 µg/mL (≈ 3.05 µM); MIC (Bacteroides corrodens; Bacteroides corrodens, 24-hour incubation, read-out: MIC): 4 µg/mL (≈ 6.11 µM); MIC [2]: < 50 µg/mL; MIC [3]: ≤ 0.5 µg/mL; MIC ([4]; Peptostreptococcus intermedius, 24-hour incubation, read-out: MIC): 4 µg/mL (≈ 6.11 µM); MIC (Clostridium septicum): 1 µg/mL (≈ 1.53 µM); MIC [5]: 8 µg/mL (≈ 12.2 µM); MIC ([6]; Bacteroides melaninogenicus 1856/28, 24-hour incubation, read-out: MIC): 2 µg/mL (≈ 3.05 µM); MIC ([7]; 24-hour incubation, read-out: MIC): 4 µg/mL (≈ 6.11 µM); MIC (Bacteroides vulgatis; Bacteroides vulgatis, 24-hour incubation, read-out: MIC): 4 µg/mL (≈ 6.11 µM); MIC (Bacteroides fragilis 111; Bacteroides fragilis 111, 24-hour incubation, read-out: MIC): 2 µg/mL (≈ 3.05 µM); MIC ([8]; Bacteroides fragilis 1936B, 24-hour incubation, read-out: MIC): 8 µg/mL (≈ 12.2 µM); Units of Activity [9]: 746 to 883 µg/mg; Activity (color reaction) (Spiroplasma citri; 0.01 ppm): RO; Activity (color reaction) (Spiroplasma citri; 0.05 ppm): R; Activity (color reaction) (Spiroplasma citri; 0.1 ppm): R; Activity (color reaction) (Spiroplasma citri; 1.0 ppm): R; MIC (Clostridium perfringens): > 128 µg/mL; MIC (Peptococcus prevoti; Peptococcus prevoti, 24-hour incubation, read-out: MIC): 2 µg/mL (≈ 3.05 µM); MIC [10]: < 50 µg/mL; MIC (Mycoplasma hyorhinis): 0.39 µg/mL (≈ 0.596 µM); MIC (Mycoplasma hyopneumoniae): ≤ 0.15 µg/mL; MIC (Mycoplasma synoviae): 0.78 µg/mL (≈ 1.19 µM); MIC (Mycoplasma gallisepticum): 0.78 µg/mL (≈ 1.19 µM); MIC ([11]; Bacteroides fragilis 1877, 24-hour incubation, read-out: MIC): 2 µg/mL (≈ 3.05 µM); MIC (Eubacterium aerofaciens; Eubacterium aerofaciens, 24-hour incubation, read-out: MIC): 16 µg/mL (≈ 24.4 µM); MIC (Fusobacterium symbiosum; Fusobacterium symbiosum, 24-hour incubation, read-out: MIC): 4 µg/mL (≈ 6.11 µM); MIC [12]: 4 µg/mL (≈ 6.11 µM)

What does the source list for `CC[C@]1(C)C[C@@H](OC(=O)CO[C@H]2O[C@H](COC(C)=O)[C@@H](OC(C)=O)[C@H](OC(C)=O)C2=NO)[C@]2(C)[C@H](C)CC[C@]3(CCC(=O)[C@H]32)[C@@H](C)[C@@H]1O` [Compound 8, 14-deoxy-14-[(2-deoxy-2-(hydroxyimino)-3,4,6-tri-O-acetyl-α-D-glucopyranosyl)oxyacetoxy]-19,20-dihydromutilin]?
LD50 [13]: > 300 mg/kg; MIC ([1]; 2736, 24 h): > 128 µg/mL; MIC (Actinomyces israelii): 8 µg/mL (≈ 11.7 µM); MIC (Bacteroides corrodens; 24 h): > 128 µg/mL; MIC [3]: 64 µg/mL (≈ 93.9 µM); MIC ([4]; Peptostreptococcus, 24 h): > 128 µg/mL; MIC (Clostridium septicum): > 128 µg/mL; MIC [5]: > 128 µg/mL; MIC ([6]; 1856/28, 24 h): > 128 µg/mL; MIC ([7]; 24 h): > 128 µg/mL; MIC (Bacteroides vulgatis; Bacteroides, 24 h): > 128 µg/mL; MIC (Bacteroides fragilis 111; Bacteroides fragilis, 111, 24 h): > 128 µg/mL; MIC ([8]; Bacteroides fragilis, 1936B, 24 h): > 128 µg/mL; Activity (color reaction) (Spiroplasma citri; 0.1 ppm): Y; Activity (color reaction) (Spiroplasma citri; 1.0 ppm): R; MIC (Clostridium perfringens): > 128 µg/mL; MIC (Peptococcus prevoti; 24 h): > 128 µg/mL; MIC (Mycoplasma hyorhinis): 6.25 µg/mL (≈ 9.17 µM); MIC (Mycoplasma synoviae): 6.25 µg/mL (≈ 9.17 µM); MIC (Mycoplasma gallisepticum): 3.12 µg/mL (≈ 4.58 µM); MIC ([11]; Bacteroides fragilis, 1877, 24 h): > 128 µg/mL; MIC (Eubacterium aerofaciens; 24 h): > 128 µg/mL; MIC (Fusobacterium symbiosum; Fusobacterium, 24 h): > 128 µg/mL; MIC [12]: 8 µg/mL (≈ 11.7 µM)
